Experimental findings from PubChem BioAssay AID330 (DTP/NCI, 2004) are described below.

“And” between values parts separate entries of the source, which are not always exact repeats. Equal entries are not always repeated. Toxic doses and inconclusive results are not listed.

The test system of this test is P388 leukemia ip, CD2F1 mice, survival T/C. Description: NCI In Vivo Anticancer Drug Screen. Data for tumor model P388 Leukemia (intraperitoneal) in CD2F1 (CDF1) mice. The settings on record: endpoint: median survival time, higher = longer survival. The essentials: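 Mice carrying the transplanted tumor received test compound or vehicle. Survival was recorded in each group, and the value is the treated-group measurement divided by that of the vehicle-treated control group.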

Where [1] appears, read: dose: 25.0 mg/kg/injection, schedule: Q01DX005 (ip), vehicle: saline.
The mark [2] stands for this setting: dose: 50.0 mg/kg/injection, schedule: Q01DX005 (ip), vehicle: saline.
The mark [3] stands for this setting: dose: 100.0 mg/kg/injection, schedule: Q01DX005 (ip), vehicle: saline.
[4] abbreviates: dose: 60.0 mg/kg/injection, schedule: Q01DX005 (ip), vehicle: saline with Tween-80.
Setting [5] is: dose: 120.0 mg/kg/injection, schedule: Q01DX005 (ip), vehicle: saline with Tween-80.
Setting [6] is: dose: 240.0 mg/kg/injection, schedule: Q01DX005 (ip), vehicle: saline with Tween-80.
[7] abbreviates: dose: 50.0 mg/kg/injection, schedule: Q01DX005 (ip), vehicle: Klucel (hydroxypropylcellulose) (HPC).
Setting [8] is: dose: 100.0 mg/kg/injection, schedule: Q01DX005 (ip), vehicle: Klucel (hydroxypropylcellulose) (HPC).
Setting [9] is: dose: 200.0 mg/kg/injection, schedule: Q01DX005 (ip), vehicle: Klucel (hydroxypropylcellulose) (HPC).
The mark [10] stands for this setting: dose: 50.0 mg/kg/injection, schedule: Q01DX005 (ip), vehicle: saline with Tween-80.
[11] abbreviates: dose: 100.0 mg/kg/injection, schedule: Q01DX005 (ip), vehicle: saline with Tween-80.
The mark [12] stands for this setting: dose: 200.0 mg/kg/injection, schedule: Q01DX005 (ip), vehicle: saline with Tween-80.
[13] abbreviates: dose: 50.0 mg/kg/injection, schedule: Q01DX009 (ip), vehicle: saline.
[14] abbreviates: dose: 100.0 mg/kg/injection, schedule: Q01DX009 (ip), vehicle: saline.
Setting [15] is: dose: 200.0 mg/kg/injection, schedule: Q01DX009 (ip), vehicle: saline.

Consider `C[N+](C)(C)/N=C(/c1ccccc1)C1CCCCC1`, for which the T/C (dose: 12.5 mg/kg/injection, schedule: Q01DX001 (ip), vehicle: Klucel (hydroxypropylcellulose) (HPC)) was 91 % of control; the T/C (dose: 25.0 mg/kg/injection, schedule: Q01DX001 (ip), vehicle: Klucel (hydroxypropylcellulose) (HPC)) was 100 % of control; the T/C (dose: 50.0 mg/kg/injection, schedule: Q01DX001 (ip), vehicle: Klucel (hydroxypropylcellulose) (HPC)) is 97 % of control.

On to `O=C1c2cc(Oc3ccccc3)c(S(=O)(=O)O)c(S(=O)(=O)O)c2C(=O)c2c(O)ccc(O)c21`, for which the T/C is 104 % of control under setting [1]; 107 % of control under setting [2]; 94 % of control under setting [3]; 94 % of control (dose: 200.0 mg/kg/injection, schedule: Q01DX005 (ip), vehicle: saline).

Consider `CC(=O)OC1CC2CC(O)(C(=O)CO)CC2C2CCC3=CC(=O)CC3C(C)(O)C12` (configuration not stated), for which the T/C is 100 % of control under setting [4], 93 % of control under setting [5] and 93 % of control under setting [6].

Turning to `COc1cccc(NC(=S)NCc2cccnc2)c1`, the T/C is 101 % of control (dose: 50.0 mg/kg/injection, schedule: Q01DX009 (ip), vehicle: Klucel (hydroxypropylcellulose) (HPC)); 91 % of control (dose: 100.0 mg/kg/injection, schedule: Q01DX009 (ip), vehicle: Klucel (hydroxypropylcellulose) (HPC)); 111 % of control (dose: 200.0 mg/kg/injection, schedule: Q01DX009 (ip), vehicle: Klucel (hydroxypropylcellulose) (HPC)).

Consider `c1ccc(C2=N[C@@H](N3CCCCC3)[C@H](N3CCCCC3)N2c2ccccc2)cc1`, for which the T/C is 105 % of control under setting [7], 100 % of control under setting [8] and 98 % of control under setting [9].

On to `CCN(CC)C(=S)S`, for which the T/C is 95 % of control (dose: 100.0 mg/kg/injection, schedule: Q04DX003 (ip), vehicle: saline sonified); 100 % of control (dose: 200.0 mg/kg/injection, schedule: Q04DX003 (ip), vehicle: saline sonified); 90 % of control (dose: 400.0 mg/kg/injection, schedule: Q04DX003 (ip), vehicle: saline sonified).

`CCCCCCCCCCCC(=O)NCCOCCOCCOCCOCCOCCOCCOCCOCCO` (tested in a mixture with another compound): the T/C was 98 % of control under setting [10], 102 % of control under setting [11] and 96 % of control under setting [12].

As to `Cn1c(N)c(C(=O)/C=C/c2ccccc2)c(=O)[nH]c1=O`, the T/C runs as follows: under setting [7], 95 % of control; under setting [8], 88 % of control; under setting [9], 88 % of control.

On to `O=C1CC(c2ccccc2)C(c2ccccc2)CO1` (configuration not stated), for which the T/C is, setting by setting: (dose: 25.0 mg/kg/injection, schedule: Q04DX003 (ip), vehicle: Klucel (hydroxypropylcellulose) (HPC)) 91 % of control; (dose: 50.0 mg/kg/injection, schedule: Q04DX003 (ip), vehicle: Klucel (hydroxypropylcellulose) (HPC)) 92 % of control; (dose: 100.0 mg/kg/injection, schedule: Q04DX003 (ip), vehicle: Klucel (hydroxypropylcellulose) (HPC)) 88 % of control and 92 % of control; (dose: 400.0 mg/kg/injection, schedule: Q04DX003 (ip), vehicle: Klucel (hydroxypropylcellulose) (HPC)) 87 % of control.

For the molecule `C=C1C(=O)C23C(OC(=O)/C=C/c4ccccc4)C1CCC2C12COC3(O)C(O)C1C(C)(C)CCC2O` (configuration not stated), the T/C is 98 % of control (dose: 3.75 mg/kg/injection, schedule: Q01DX009 (ip), vehicle: saline with Tween-80); 95 % of control (dose: 7.5 mg/kg/injection, schedule: Q01DX009 (ip), vehicle: saline with Tween-80); 101 % of control (dose: 15.0 mg/kg/injection, schedule: Q01DX009 (ip), vehicle: saline with Tween-80); 98 % of control (dose: 30.0 mg/kg/injection, schedule: Q01DX009 (ip), vehicle: saline with Tween-80).

With `N=C(N)c1ccc2cc(/C=C/c3cc4ccc(C(=N)N)cc4o3)[nH]c2c1`, the T/C (dose: 50.0 mg/kg/injection, schedule: Q04DX003 (ip), vehicle: saline) was 157 % of control and the T/C (dose: 50.0 mg/kg/injection, schedule: Q04DX003 (ip), vehicle: suspension in saline) was 208 % of control.

With `CCOP(=O)(N=Nc1ccc(OC)nc1)OCC`, the T/C is 102 % of control (dose: 12.5 mg/kg/injection, schedule: Q01DX005 (ip), vehicle: saline); 109 % of control under setting [1]; 100 % of control under setting [2]; 108 % of control under setting [3]; 104 % of control (dose: 1560.0 micrograms/kg/injection, schedule: Q01DX009 (ip), vehicle: saline); 102 % of control (dose: 3125.0 micrograms/kg/injection, schedule: Q01DX009 (ip), vehicle: saline). The T/C is, setting by setting: (dose: 6250.0 micrograms/kg/injection, schedule: Q01DX009 (ip), vehicle: saline) 108 % of control; (dose: 12500.0 micrograms/kg/injection, schedule: Q01DX009 (ip), vehicle: saline) 106 % of control; (dose: 25000.0 micrograms/kg/injection, schedule: Q01DX009 (ip), vehicle: saline) 112 % of control.

For the molecule `N=Nc1c(OC(=O)Nc2ccccc2)[nH]c2ccccc12`, the T/C runs as follows: under setting [7], 90 % of control; under setting [8], 90 % of control; under setting [9], 87 % of control.

As for `O=c1nnc(O)c2n(O)cccc1-2`, the T/C by setting is: under setting [4], 100 % of control; under setting [5], 105 % of control; under setting [6], 97 % of control.

Consider `Cc1cc(OC(=O)c2c(-c3ccccc3)noc2C)n(-c2ccc(NC(=O)c3c(-c4ccccc4)noc3C)cc2)n1`, for which the T/C runs as follows: under setting [13], 96 % of control; under setting [14], 100 % of control; under setting [15], 101 % of control.

For `N#Cc1cc2cccn2c2c1cnn2-c1ccccc1`, the T/C by setting is: under setting [4], 105 % of control; under setting [5], 98 % of control; under setting [6], 89 % of control.

As for `c1ccc(C(Sc2ncnc3nc[nH]c23)c2ccccc2)cc1`, the T/C is 102 % of control under setting [13], 102 % of control under setting [14] and 111 % of control under setting [15].

As for `O=C(O)CNC(=O)C(Cc1c[nH]c2ccccc12)NC(=O)OCc1ccccc1` (configuration not stated), the T/C is, setting by setting: under setting [10], 95 % of control; under setting [11], 94 % of control; under setting [12], 91 % of control.

Regarding `COC(=O)c1c(-c2ccc(OC)c(OC)c2)cn(C)c1C`, the T/C reads like this: under setting [10], 104 % of control; under setting [11], 96 % of control; under setting [12], 91 % of control.

Turning to `CCCCCOCC(=O)OC`, the T/C runs as follows: (dose: 50.0 mg/kg/injection, schedule: Q01DX009 (ip), vehicle: saline with Tween-80) 98 % of control; (dose: 100.0 mg/kg/injection, schedule: Q01DX009 (ip), vehicle: saline with Tween-80) 102 % of control; (dose: 200.0 mg/kg/injection, schedule: Q01DX009 (ip), vehicle: saline with Tween-80) 103 % of control.

Consider `Cc1nnc2c([Se])nccn12`, for which the T/C is, setting by setting: (dose: 100.0 mg/kg/injection, schedule: Q01DX001 (ip), vehicle: saline with Tween-80) 99 % of control; (dose: 200.0 mg/kg/injection, schedule: Q01DX001 (ip), vehicle: saline with Tween-80) 93 % of control.

Regarding `O=C(Nc1ccccc1)Sc1ccc(Cl)cc1`, the T/C reads like this: (dose: 25.0 mg/kg/injection, schedule: Q01DX005 (ip), vehicle: saline with Tween-80) 115 % of control; under setting [10], 121 % of control; under setting [11], 115 % of control and 123 % of control; under setting [12], 124 % of control.

In the case of `COc1ccnc(-c2cc(OC)cc(/C(N)=N/O)n2)c1`, the T/C under setting [4] was 100 % of control, the T/C under setting [5] was 105 % of control and the T/C under setting [6] was 100 % of control.

In the case of `CN=C(N)N/N=C(\c1ccccc1)c1cc(Cl)c(O)c(Cl)c1`, the T/C reads like this: (dose: 25.0 mg/kg/injection, schedule: Q04DX002 (ip), vehicle: saline with Tween-80) 101 % of control; (dose: 50.0 mg/kg/injection, schedule: Q04DX002 (ip), vehicle: saline with Tween-80) 100 % of control; (dose: 100.0 mg/kg/injection, schedule: Q04DX002 (ip), vehicle: saline with Tween-80) 100 % of control; (dose: 200.0 mg/kg/injection, schedule: Q04DX002 (ip), vehicle: saline with Tween-80) 104 % of control; (dose: 400.0 mg/kg/injection, schedule: Q04DX002 (ip), vehicle: saline with Tween-80) 103 % of control.
